Reference: ChEMBL document CHEMBL1201862, “PubChem BioAssay data set” (2004)
Each block holds one molecule with its values, some of them ahead of it. The source made the active and inactive calls.

Tests used:
[1] = target: T1, G-protein coupled receptor 35 (Homo sapiens, UniProt Q9HC97); assay: SAR analysis of Agonists of the GPR35 Receptor using an Image-Based Assay - Set 4. [Related pubchem assays (depositor defined):AID2013, AID2026]; format: functional
Cannabinoid receptor 1 [2] = target: T2, Cannabinoid receptor 1 (Homo sapiens, UniProt P21554); assay: SAR analysis of agonists of the Cannabinoid Receptor 1 using an Image-Based Assay - Set 4. [Related pubchem assays (depositor defined):AID2013, AID2026]; format: functional
[3] = target: T1, G-protein coupled receptor 35; assay: SAR analysis of Antagonists of the GPR35 Receptor using an Image-Based Assay - Set 6. [Related pubchem assays (depositor defined):AID2013, AID2026]; format: functional
Cannabinoid receptor 1 [4] = target: T2, Cannabinoid receptor 1; assay: SAR analysis of antagonists of the Cannabinoid Receptor 1 using an Image-Based Assay - Set 4. [Related pubchem assays (depositor defined):AID2013, AID2026]; format: functional
[5] = target: T3, G-protein coupled receptor 55 (Homo sapiens, UniProt Q9Y2T6); assay: SAR Analysis of Selective Antagonists of GPR55 using an Image-Based Assay - Set 4. [Related pubchem assays (depositor defined):AID2013, AID2026]; format: functional
Cannabinoid receptor 2 [6] = target: T4, Cannabinoid receptor 2 (Homo sapiens, UniProt P34972); assay: SAR analysis of antagonists of the Cannabinoid Receptor 2 using an Image-Based Assay - Set 3. [Related pubchem assays (depositor defined):AID2013, AID2026]; format: functional
Cannabinoid receptor 2 [7] = target: T4, Cannabinoid receptor 2; assay: SAR analysis of agonists of the Cannabinoid Receptor 2 using an Image-Based Assay - Set 3. [Related pubchem assays (depositor defined):AID2013, AID2026]; format: functional
[8] = target: Signal transducer and activator of transcription 3 (Homo sapiens, UniProt P40763); assay: STAT3 blockade with qPCR and toxicity readouts – cell-based, STAT1 panel, cytotoxicity, late-stage follow-up, panel member STAT3 Inhibition (AID 2078)
[9] = target: Signal transducer and activator of transcription 1-alpha/beta (Homo sapiens, UniProt P42224); assay: STAT3 blockade with qPCR and toxicity readouts – cell-based, STAT1 panel, cytotoxicity, late-stage follow-up, panel member STAT1 Inhibition (AID 2078)
[10] = target: T5, Runt-related transcription factor 1/Core-binding factor subunit beta (Homo sapiens, UniProt Q01196+Q13951); assay: disruptors of Runt domain/CBFb-SMMHC interaction – biochemical, FRET, Cerulean-Runt, Venus-CBFb-SMMHC, uHTS, […] (AID 1434); format: protein assay
[11] = target: T5, Runt-related transcription factor 1/Core-binding factor subunit beta; assay: Runt domain/CBFb-SMMHC interaction disruptors – biochemical, TR-FRET (AID 1438); format: protein assay
[12] = target: Tyrosine-protein phosphatase non-receptor type 12 (Homo sapiens, UniProt Q05209); assay: SAR Selectivity Analysis of small molecule inhibitors of PEST using pCAP in a fluorescence assay. [Related pubchem assays (depositor defined):AID1779, AID1784, AID2135]; format: functional
[13] = target: T6, Tyrosine-protein phosphatase non-receptor type 22 (Homo sapiens, UniProt Q9Y2R2); assay: SAR LYP1 Fluorescent Assay using OMFP substrate for In Vitro dose response studies - Set 3. [Related pubchem assays (depositor defined):AID1779, AID1784, AID2140, AID2686]; format: functional
T6 sequence (Q9Y2R2 whole entry): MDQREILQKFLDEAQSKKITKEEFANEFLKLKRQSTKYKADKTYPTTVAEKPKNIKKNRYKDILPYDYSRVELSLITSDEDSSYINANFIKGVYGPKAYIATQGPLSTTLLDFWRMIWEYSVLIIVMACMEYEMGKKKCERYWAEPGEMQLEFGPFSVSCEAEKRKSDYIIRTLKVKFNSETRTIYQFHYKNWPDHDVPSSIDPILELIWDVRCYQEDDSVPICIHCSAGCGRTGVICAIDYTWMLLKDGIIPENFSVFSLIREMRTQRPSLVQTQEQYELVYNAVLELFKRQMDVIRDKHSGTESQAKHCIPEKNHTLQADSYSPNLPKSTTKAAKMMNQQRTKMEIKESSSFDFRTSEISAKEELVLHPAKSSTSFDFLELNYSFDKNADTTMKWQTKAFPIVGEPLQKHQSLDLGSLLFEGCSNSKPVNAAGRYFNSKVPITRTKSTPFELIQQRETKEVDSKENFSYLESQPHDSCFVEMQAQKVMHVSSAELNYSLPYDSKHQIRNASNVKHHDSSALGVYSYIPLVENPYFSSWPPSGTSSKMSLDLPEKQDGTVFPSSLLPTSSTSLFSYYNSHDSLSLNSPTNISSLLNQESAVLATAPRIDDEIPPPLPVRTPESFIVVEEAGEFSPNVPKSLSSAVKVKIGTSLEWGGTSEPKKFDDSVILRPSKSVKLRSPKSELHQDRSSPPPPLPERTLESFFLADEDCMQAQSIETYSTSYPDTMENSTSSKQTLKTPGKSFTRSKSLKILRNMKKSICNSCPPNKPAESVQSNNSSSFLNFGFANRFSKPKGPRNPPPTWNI

[14] = target: T7, Tyrosine-protein phosphatase non-receptor type 7 (Homo sapiens, UniProt P35236); assay: redox-active compounds inhibiting HePTP phosphatase – biochemical, fluorescence, mechanism study (AID 2068); format: functional
T7 sequence (P35236 whole entry): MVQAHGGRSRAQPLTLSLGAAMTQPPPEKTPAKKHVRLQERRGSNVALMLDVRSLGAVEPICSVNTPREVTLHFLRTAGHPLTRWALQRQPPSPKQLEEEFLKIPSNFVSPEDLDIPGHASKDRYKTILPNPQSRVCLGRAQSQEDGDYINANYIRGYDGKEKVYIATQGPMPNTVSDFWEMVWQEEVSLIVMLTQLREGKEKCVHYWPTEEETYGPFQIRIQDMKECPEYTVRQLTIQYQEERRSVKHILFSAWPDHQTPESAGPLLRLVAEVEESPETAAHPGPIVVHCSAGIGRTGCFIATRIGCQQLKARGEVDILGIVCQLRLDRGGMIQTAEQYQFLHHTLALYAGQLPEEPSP

[15] = target: T7, Tyrosine-protein phosphatase non-receptor type 7; assay: inhibition of hematopoietic tyrosine phosphatase HePTP – biochemical, set 2, SAR follow-up (AID 449736); format: functional
[16] = target: T6, Tyrosine-protein phosphatase non-receptor type 22; assay: inhibition of lymphoid tyrosine phosphatase LYP – biochemical, pCAP fluorogenic substrate, fluorescence, set 3, SAR follow-up (AID 449727); format: functional
[17] = target: Dual specificity protein phosphatase 3 (Homo sapiens, UniProt P51452); assay: SAR VHR1 Fluorescent Assay for In Vitro dose response studies Set 2. [Related pubchem assays (depositor defined):AID1654, AID1661, AID1878]; format: functional
[18] = target: T8, Dual specificity protein phosphatase 6 (Rattus norvegicus, UniProt Q64346); format: functional;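 further: confirmatory in vitro dose-response testing of MKP-3 inhibition; recombinant His-tagged MKP-3 made in E. coli BL21 with OMFP substrate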
T8 sequence (Q64346 whole entry): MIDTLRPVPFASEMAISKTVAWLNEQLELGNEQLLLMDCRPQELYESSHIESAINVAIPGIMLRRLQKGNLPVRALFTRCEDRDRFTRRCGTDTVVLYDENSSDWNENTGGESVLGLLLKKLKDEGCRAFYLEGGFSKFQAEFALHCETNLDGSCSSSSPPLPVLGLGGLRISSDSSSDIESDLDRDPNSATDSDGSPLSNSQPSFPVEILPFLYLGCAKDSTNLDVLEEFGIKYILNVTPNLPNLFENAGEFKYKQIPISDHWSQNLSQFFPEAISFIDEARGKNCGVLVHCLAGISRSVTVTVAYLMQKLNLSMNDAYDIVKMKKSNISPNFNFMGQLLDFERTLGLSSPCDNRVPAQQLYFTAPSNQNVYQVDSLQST

[19] = target: Sphingosine 1-phosphate receptor 5 (Homo sapiens, UniProt Q9H228); assay: (§1) Late-stage fluorescence-based dose-response cell-based assay to identify agonists of the Sphingosine 1-Phosphate Receptor 4 (S1P4): Sphingosine 1-Phosphate Receptor 5 (S1P5) counterscreen assay. [Related pubchem assays (depositor defined):AID1509, AID1523, AID1563, AID1686, AID1701, AID1801, AID463107, AID463225, AID504400]; format: functional
[20] = target: Sphingosine 1-phosphate receptor 1 (Homo sapiens, UniProt P21453); assay: as §1, with “1 (S1P1)” for “5 (S1P5)”; format: functional
[21] = target: Sphingosine 1-phosphate receptor 2 (Homo sapiens, UniProt O95136); assay: as §1, with “2 (S1P2)” for “5 (S1P5)”; format: functional
[22] = target: Sphingosine 1-phosphate receptor 3 (Homo sapiens, UniProt Q99500); assay: as §1, with “3 (S1P3)” for “5 (S1P5)”; format: functional
[23] = target: T9, Type-1 angiotensin II receptor (Homo sapiens, UniProt P30556); assay: agonist activity at AGTR1 – cell-based, uHTS hits, selectivity assay for APJ receptor agonist project, dose response (AID 488865); format: functional;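 further: beta-arrestin recruitment to AT1 measured by enzyme fragment complementation luminescence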
T9 sequence (P30556 whole entry): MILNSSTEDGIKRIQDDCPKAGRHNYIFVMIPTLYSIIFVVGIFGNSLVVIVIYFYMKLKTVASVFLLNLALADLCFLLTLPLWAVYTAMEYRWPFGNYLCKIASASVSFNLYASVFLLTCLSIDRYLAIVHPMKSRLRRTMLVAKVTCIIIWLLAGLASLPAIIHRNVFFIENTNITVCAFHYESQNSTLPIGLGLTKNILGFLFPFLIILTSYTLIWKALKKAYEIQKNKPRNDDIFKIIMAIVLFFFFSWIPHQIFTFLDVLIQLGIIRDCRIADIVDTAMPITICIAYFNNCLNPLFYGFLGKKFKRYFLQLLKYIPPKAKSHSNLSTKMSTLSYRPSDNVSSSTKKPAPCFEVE

[24] = target: T3, G-protein coupled receptor 55; assay: inhibition of LPI-stimulated GPR55 beta-arrestin translocation – imaging, U2OS, beta-arrestin-GFP, LPI agonist, primary screen (AID 2013); format: functional;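 further: antagonist potency measured as reduced agonist-driven arrestin aggregation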
Cannabinoid receptor 1 [25] = target: T2, Cannabinoid receptor 1; assay: SAR analysis of antagonists of the Cannabinoid Receptor 1 using an Image-Based Assay - Set 2. [Related pubchem assays (depositor defined):AID2013, AID2026]; format: functional
[26] = target: T1, G-protein coupled receptor 35; assay: SAR analysis of Agonists of the GPR35 Receptor using an Image-Based Assay - Set 2. [Related pubchem assays (depositor defined):AID2013, AID2026]; format: functional
Cannabinoid receptor 2 [27] = target: T4, Cannabinoid receptor 2; assay: SAR analysis of antagonists of the Cannabinoid Receptor 2 using an Image-Based Assay. [Related pubchem assays (depositor defined):AID2013, AID2026]; format: functional
Cannabinoid receptor 1 [28] = target: T2, Cannabinoid receptor 1; assay: SAR analysis of agonists of the Cannabinoid Receptor 1 using an Image-Based Assay - Set 2. [Related pubchem assays (depositor defined):AID2013, AID2026]; format: functional
[29] = target: T1, G-protein coupled receptor 35; assay: SAR analysis of Antagonists of the GPR35 Receptor using an Image-Based Assay - Set 3. [Related pubchem assays (depositor defined):AID2013, AID2026]; format: functional
[30] = target: T3, G-protein coupled receptor 55; assay: blockade of LPI-induced GPR55 arrestin translocation – imaging, U2OS, beta-arrestin-GFP, LPI agonist, set 2, SAR follow-up (AID 2820); format: functional
Cannabinoid receptor 2 [31] = target: T4, Cannabinoid receptor 2; assay: SAR analysis of agonists of the Cannabinoid Receptor 2 using an Image-Based Assay. [Related pubchem assays (depositor defined):AID2013, AID2026]; format: functional

T2 sequence (P21554 whole entry): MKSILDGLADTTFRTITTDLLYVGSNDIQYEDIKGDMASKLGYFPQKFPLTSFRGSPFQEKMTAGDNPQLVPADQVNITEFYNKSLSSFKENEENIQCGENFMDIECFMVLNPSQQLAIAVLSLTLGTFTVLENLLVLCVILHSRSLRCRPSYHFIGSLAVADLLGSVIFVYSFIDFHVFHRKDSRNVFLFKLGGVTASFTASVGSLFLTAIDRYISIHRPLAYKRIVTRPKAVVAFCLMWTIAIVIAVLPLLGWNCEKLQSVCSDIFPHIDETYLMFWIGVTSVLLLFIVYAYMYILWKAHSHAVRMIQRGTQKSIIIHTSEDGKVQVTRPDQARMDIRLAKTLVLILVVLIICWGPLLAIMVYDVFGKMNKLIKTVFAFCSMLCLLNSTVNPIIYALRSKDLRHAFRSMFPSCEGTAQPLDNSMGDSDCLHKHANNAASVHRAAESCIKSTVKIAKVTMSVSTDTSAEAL
T3 sequence (Q9Y2T6 whole entry): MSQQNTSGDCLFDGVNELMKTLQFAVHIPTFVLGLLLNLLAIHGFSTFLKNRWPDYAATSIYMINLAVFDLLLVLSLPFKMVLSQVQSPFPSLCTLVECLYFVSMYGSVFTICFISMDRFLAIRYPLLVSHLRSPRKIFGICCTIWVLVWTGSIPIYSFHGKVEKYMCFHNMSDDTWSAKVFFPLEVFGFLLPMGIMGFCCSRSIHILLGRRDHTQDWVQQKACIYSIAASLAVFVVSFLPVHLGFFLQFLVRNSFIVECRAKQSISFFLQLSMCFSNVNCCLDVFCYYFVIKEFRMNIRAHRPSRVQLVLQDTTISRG
T1 sequence (Q9HC97 whole entry): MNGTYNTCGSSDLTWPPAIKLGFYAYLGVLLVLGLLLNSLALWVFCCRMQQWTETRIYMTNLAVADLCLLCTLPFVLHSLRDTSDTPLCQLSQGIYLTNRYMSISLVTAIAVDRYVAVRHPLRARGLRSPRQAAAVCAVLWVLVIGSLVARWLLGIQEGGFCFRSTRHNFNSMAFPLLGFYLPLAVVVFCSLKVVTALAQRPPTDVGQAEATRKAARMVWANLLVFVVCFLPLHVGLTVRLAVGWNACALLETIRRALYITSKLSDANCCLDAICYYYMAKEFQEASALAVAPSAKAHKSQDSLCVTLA
T4 sequence (P34972 whole entry): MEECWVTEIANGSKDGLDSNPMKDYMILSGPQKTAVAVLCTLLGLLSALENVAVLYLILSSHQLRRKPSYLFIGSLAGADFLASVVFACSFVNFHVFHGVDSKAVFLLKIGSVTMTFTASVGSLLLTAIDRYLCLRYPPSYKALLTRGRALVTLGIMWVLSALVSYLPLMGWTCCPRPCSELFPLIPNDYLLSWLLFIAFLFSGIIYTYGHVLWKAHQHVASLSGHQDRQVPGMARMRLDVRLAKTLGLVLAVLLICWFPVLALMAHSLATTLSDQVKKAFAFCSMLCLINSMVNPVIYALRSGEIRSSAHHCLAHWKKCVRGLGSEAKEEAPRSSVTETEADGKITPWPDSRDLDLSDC
T5 sequence (Q01196 whole entry, the tested form may be a part): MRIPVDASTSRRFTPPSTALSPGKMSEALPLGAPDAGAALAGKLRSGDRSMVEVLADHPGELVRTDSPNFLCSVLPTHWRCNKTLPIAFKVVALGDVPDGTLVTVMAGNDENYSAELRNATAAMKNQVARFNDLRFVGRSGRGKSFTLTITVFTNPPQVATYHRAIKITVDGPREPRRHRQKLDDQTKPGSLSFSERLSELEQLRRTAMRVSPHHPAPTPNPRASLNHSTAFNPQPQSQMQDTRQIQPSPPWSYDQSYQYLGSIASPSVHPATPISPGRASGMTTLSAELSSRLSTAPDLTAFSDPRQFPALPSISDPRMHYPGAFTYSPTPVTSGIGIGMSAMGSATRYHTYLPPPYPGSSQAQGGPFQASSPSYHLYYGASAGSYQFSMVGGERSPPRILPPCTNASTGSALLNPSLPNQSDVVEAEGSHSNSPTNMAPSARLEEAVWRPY
T5 sequence (Q13951 whole entry, the tested form may be a part): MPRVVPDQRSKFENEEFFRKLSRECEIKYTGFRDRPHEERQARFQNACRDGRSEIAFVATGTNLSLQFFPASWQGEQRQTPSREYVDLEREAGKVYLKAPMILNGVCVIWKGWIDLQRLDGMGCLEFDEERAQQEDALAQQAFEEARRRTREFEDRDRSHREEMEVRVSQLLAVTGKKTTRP
Sphingosine 1-phosphate receptor 5, sequence (Q9H228 whole entry): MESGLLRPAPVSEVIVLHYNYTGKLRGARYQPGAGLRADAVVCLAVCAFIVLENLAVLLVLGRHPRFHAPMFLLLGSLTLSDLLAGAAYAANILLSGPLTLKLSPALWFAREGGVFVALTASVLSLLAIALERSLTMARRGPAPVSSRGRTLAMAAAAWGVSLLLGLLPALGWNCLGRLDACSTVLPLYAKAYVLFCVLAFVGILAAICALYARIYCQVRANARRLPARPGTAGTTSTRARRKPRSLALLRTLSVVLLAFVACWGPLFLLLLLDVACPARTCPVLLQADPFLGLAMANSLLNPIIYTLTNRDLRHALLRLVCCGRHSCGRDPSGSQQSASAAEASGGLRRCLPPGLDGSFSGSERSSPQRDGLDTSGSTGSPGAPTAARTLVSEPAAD
Signal transducer and activator of transcription 1-alpha/beta, sequence (P42224 whole entry, the tested form may be a part): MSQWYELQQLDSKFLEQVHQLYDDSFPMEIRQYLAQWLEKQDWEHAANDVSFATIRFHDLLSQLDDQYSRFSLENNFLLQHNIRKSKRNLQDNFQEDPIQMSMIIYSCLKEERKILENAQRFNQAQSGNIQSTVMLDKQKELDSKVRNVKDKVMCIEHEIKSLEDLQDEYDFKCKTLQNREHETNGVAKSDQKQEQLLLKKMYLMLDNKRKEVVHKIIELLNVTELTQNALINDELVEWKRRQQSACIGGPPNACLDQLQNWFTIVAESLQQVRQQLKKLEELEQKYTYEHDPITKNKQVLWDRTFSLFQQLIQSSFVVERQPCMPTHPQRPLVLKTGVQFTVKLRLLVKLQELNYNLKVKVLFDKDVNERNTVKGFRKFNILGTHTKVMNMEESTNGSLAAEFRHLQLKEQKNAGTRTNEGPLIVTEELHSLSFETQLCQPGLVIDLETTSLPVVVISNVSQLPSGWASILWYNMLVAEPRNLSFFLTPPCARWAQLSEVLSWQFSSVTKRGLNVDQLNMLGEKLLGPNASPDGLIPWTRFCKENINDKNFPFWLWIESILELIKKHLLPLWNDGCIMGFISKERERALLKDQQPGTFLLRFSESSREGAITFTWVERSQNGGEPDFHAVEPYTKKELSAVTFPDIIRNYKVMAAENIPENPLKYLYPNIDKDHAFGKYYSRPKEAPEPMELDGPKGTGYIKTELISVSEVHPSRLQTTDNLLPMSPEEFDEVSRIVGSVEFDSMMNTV
Tyrosine-protein phosphatase non-receptor type 12, sequence (Q05209 whole entry): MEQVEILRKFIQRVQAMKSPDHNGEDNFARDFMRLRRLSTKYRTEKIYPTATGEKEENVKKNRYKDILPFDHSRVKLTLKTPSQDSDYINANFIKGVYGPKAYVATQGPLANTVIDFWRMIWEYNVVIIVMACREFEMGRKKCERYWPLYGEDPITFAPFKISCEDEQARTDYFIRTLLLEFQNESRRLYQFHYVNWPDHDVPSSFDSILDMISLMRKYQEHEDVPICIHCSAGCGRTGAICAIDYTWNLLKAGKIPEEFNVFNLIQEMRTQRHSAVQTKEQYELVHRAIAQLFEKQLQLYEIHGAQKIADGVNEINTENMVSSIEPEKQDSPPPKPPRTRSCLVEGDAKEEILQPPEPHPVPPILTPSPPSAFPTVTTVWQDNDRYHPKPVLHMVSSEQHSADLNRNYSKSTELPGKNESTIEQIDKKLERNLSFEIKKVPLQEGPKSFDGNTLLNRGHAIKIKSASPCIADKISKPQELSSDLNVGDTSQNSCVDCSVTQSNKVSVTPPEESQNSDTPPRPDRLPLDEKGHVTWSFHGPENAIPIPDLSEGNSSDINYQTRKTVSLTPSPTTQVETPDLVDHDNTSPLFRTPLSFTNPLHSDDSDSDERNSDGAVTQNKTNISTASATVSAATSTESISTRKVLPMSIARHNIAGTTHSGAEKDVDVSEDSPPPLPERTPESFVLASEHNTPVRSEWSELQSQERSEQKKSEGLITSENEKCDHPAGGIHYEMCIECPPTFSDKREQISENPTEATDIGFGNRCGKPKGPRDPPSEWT
Signal transducer and activator of transcription 3, sequence (P40763 whole entry): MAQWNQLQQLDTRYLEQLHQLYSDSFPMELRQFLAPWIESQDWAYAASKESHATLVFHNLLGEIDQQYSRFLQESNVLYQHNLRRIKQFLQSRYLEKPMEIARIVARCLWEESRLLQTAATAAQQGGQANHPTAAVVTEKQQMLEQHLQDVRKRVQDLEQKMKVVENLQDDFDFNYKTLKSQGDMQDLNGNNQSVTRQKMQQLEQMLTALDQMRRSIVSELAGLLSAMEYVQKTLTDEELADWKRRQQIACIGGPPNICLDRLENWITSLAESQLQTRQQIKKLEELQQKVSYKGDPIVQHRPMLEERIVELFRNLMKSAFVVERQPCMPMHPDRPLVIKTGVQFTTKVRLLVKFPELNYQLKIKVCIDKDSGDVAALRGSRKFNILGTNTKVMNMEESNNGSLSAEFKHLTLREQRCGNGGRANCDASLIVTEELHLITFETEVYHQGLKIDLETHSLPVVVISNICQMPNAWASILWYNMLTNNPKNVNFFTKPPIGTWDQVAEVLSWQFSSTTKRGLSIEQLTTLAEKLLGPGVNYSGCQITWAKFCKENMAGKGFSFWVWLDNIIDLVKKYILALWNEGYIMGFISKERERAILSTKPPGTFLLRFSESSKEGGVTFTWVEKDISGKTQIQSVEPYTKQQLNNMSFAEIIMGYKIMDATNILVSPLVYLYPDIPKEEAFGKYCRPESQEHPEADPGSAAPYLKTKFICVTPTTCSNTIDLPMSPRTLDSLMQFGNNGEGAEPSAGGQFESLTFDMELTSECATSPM

EC50 [1]: > 32 µM (inactive)
EC50 (Cannabinoid receptor 1 [2]): > 32 µM (inactive)
IC50 [3]: > 32 µM (inactive)
IC50 (Cannabinoid receptor 1 [4]): 14.7 µM (inactive)
IC50 [5]: 22.7 µM (inactive)
IC50 (Cannabinoid receptor 2 [6]): > 32 µM (inactive)
EC50 (Cannabinoid receptor 2 [7]): > 32 µM (inactive)
SMILES: Cc1nc(N2CCN(C(=O)C(C)C)CC2)c2c3c(sc2n1)CCCC3

SMILES: Cc1nc(N2CCC(C(O)c3ccccc3)CC2)c2c3c(sc2n1)CCCC3 (stereo unspecified)
IC50 [8]: > 55.7 µM (inactive)
IC50 [9]: > 55.7 µM (inactive)

SMILES: CCc1nnc(NC(=O)c2sc3nc4c(cc3c2N)CCCCC4)s1
IC50 [10]: 26.5 µM (active)
IC50 [11]: 16.6 µM (active)

SMILES: COC(=O)COc1ccc(/C=C2\SC(=Nc3ccc(F)cc3)NC2=O)cc1
IC50 [12]: 0.975 µM (active)
IC50 [13]: 3.49 µM (active)
IC50 [14]: 1.07 µM (active)
IC50 [15]: 1.58 µM (active)
IC50 [16]: 3.39 µM (active)
IC50 [17]: 2.49 µM (active)
IC50 [18]: 50.7 µM (active)

EC50 [19]: > 50 µM (inactive)
EC50 [20]: > 50 µM (inactive)
EC50 [21]: > 50 µM (inactive)
EC50 [22]: > 50 µM (inactive)
SMILES: Cc1ccc(OCCOc2ccc(Cl)cc2Cl)c(Br)n1

EC50 [23]: > 100 µM (inactive)
SMILES: COc1cc(NC(=S)NC(=O)CCc2ccccc2)cc(OC)c1

IC50 [24]: 0.68 µM (active)
IC50 (Cannabinoid receptor 1 [25]): 9.6 µM (active)
EC50 [26]: > 32 µM (inactive)
IC50 (Cannabinoid receptor 2 [27]): > 32 µM (inactive)
EC50 (Cannabinoid receptor 1 [28]): > 32 µM (inactive)
IC50 [29]: > 32 µM (inactive)
IC50 [30]: 0.76 µM (active)
EC50 (Cannabinoid receptor 2 [31]): > 32 µM (inactive)
SMILES: O=C(N1CCC(n2nc(-c3ccccc3)oc2=O)CC1)C1(c2ccc(Cl)cc2)CC1
